Measured values: ChEMBL document CHEMBL3507680, “University of Dundee, Gates Library screen for HepG2 cell viability”

Test: Human HepG2 cell viability assay in 384 well format
Assay type: toxicity, cell-based
Parameters: dose 125 nL, time 70.5 hour; concentration not given beside the values
Conditions: HepG2 cells, read-out: Inhibition

Row | Compound | cytotoxicity at 70.5 h
1 | COC1CCN(c2ccc(NC(=O)Cn3cccc3)cc2)CC1 | -11%
2 | CC(C)(C)c1ncc(C(=O)N2CCC(N3CCSCC3)CC2)c(O)n1 | -7.4%
3 | CN(C)CCCNC(=O)CNC(=O)N1CCc2c([nH]c3ccccc23)C1 | 35.2%
4 | CCN1C(=O)CCC12CCCN(Cc1ccc(F)cc1)CC2 (stereo unspecified) | -9.34%
5 | CCN(C)c1ncnc2c1CCN(C(=O)c1ccno1)CC2 | -7.5%
6 | Cc1cc(C)n(C2CN(C(=O)CN3C(=O)CSc4ccccc43)C2)n1 | 0.11%
7 | CCOc1ccc(Cl)cc1C(C(=O)O)N1CCOCC1 (stereo unspecified) | -4.12%
8 | COc1ccc(F)c(CN2CCCC(O)(CNCc3ncc[nH]3)C2=O)c1 (stereo unspecified) | -5.99%
9 | CCc1nc(CN2CCCC(NCc3nnc(C4CC4)n3C)C2)no1 (stereo unspecified) | -8.85%
10 | O=C(c1cc(COc2ccc3c(c2)OCO3)[nH]n1)N1CCCCO1 | 20.1%
11 | CCO[C@H]1CO[C@@]2(CCCN(S(=O)(=O)c3cccnc3)C2)C1 | -11.8%
12 | COc1c(CNC2CCN(c3ncccn3)CC2)c(C)nn1C | -8.59%
13 | Cn1c(Cn2cccn2)nnc1C1CCN(Cc2ccccc2Cl)CC1 | -4.12%
14 | CN(C)CCN(C)C(=O)Cc1ccc2c(c1)OCCO2 | 0.0835%
15 | c1cncc(CN2CCCC3(COCCN(c4cnccn4)C3)C2)c1 (stereo unspecified) | -5.18%
16 | COCCN1CCN(S(=O)(=O)C2CC2)Cc2cccnc21 | -5.48%
17 | CCc1ncncc1C(=O)NCCN1CCC(C)CC1 | -4.63%
18 | CN(C)C(=O)COC[C@@]12CCC[C@@H]1CNC2 | -13.5%
19 | Cc1nn(-c2ccc(C(=O)O)cc2)c2c1C(c1cccs1)SCC(=O)N2 (stereo unspecified) | 0.275%
20 | CCc1ncnc(N2CCOCC2CCO)c1F (stereo unspecified) | -2.27%
21 | Cc1cnc(C(=O)N2CCCC3(CCN(c4cnn(C)c4)C3=O)C2)cn1 (stereo unspecified) | -3.83%
22 | CC(C)N1CCC(Cc2cncc(-c3cc(F)ccc3C(=O)O)n2)CC1 | 0.0602%
23 | NC(=O)C1CCCN(Cc2ccc(C(=O)Nc3cnns3)cc2)C1 (stereo unspecified) | 5.24%
24 | COCCN(Cc1ccccc1)C(=O)c1cnn(C)c1C | -8.55%

Row | Compound | cytotoxicity at 70.5 h
25 | Cc1cc(C)cc(CN2CCN(C(=O)COCC3CCCO3)CC2=O)c1 (stereo unspecified) | -5.03%
26 | O=C(C1CCOC1)N1C[C@H]2CN(Cc3cccnc3)C(=O)[C@H]2C1 (stereo partly specified) | 11.7%
27 | Cc1cccc(CN2C[C@@H]3CN(C(=O)c4ccco4)C[C@@H]3C2=O)n1 | -13.1%
28 | O=C(Cn1cncn1)NCC1CCN(Cc2ccccc2Cl)CC1 | 2.75%
29 | CCc1nnc2n1CCN(Cc1csc(-c3ccc(C)o3)n1)C2 | -33.2%
30 | Cc1c(C(=O)NCCC(=O)N2CCCC2)oc2c(F)cccc12 | -6.53%
31 | O=C(Cc1cccc(O)c1)NCCCNC(=O)c1cccc(F)c1 | -5.97%
32 | Cc1nn(C)c(C)c1CCC(=O)Nc1nnc(C2CC2)s1 | 22.3%
33 | CCN(Cc1ccccc1)C(=O)CN1CCCCC1Cn1cncn1 (stereo unspecified) | -6.76%
34 | O=C(c1cn(-c2ccccc2Cl)nn1)N1CCCSCC1 | -9.29%
35 | Cc1noc([C@@H]2C[C@@H]3CCN(c4nnc(C)s4)C[C@H]3O2)n1 | -11.6%
36 | Cc1nn(C)c(N(C)C)c1CNCc1cccc(Cn2cncn2)c1 | -3.12%
37 | CC(C)c1nn(C)c(N(C)C)c1CNC1CCOc2ccccc21 (stereo unspecified) | 7.29%
38 | OC1(CNCCSCc2ccccc2)CCCNC1 (stereo unspecified) | 18.4%
39 | NC1(CN2CCCCC2)CCCCC1 | -3.49%
40 | COCCNc1ncc(-c2cc(C)no2)c(-c2ccco2)n1 | 8.77%
41 | COc1ccc(CNc2c(C)nn(C(C)C)c2C)cc1 | 13.9%
42 | CCN(Cc1cc(F)c(OC)c(Cl)c1)Cc1nc(COC)no1 | 12.1%
43 | Cn1cc(CN2CCO[C@H]3CN(Cc4ccco4)C[C@H]32)cn1 | -2.62%
44 | Cc1nc(C)c(COc2ccc(N(C)S(C)(=O)=O)cc2)s1 | 2.74%
45 | COC(=O)Cn1c(=O)nc2n1C(=O)N(c1ccc(Br)cc1)C2 | 10.9%
46 | COC(=O)c1cccc(S(=O)(=O)NC(=O)COC2CCCC2)c1 | -11.9%
47 | CCNC(=O)N1CCc2ccc(NC(=O)NCCOCC)cc21 | 1.97%
48 | CCS(=O)(=O)N1CC[C@H]2OCC[C@@]2(C(=O)NC)C1 | -9.74%

Row | Compound | cytotoxicity at 70.5 h
49 | Cc1ccc(N2CC[C@H]3C[C@H](C(=O)NCc4ccco4)O[C@@H]3C2)cc1 | 2.5%
50 | CN(C)Cc1cnc(C2CCN(C(=O)c3cccc(Cl)c3)C2)[nH]1 (stereo unspecified) | -3.59%
51 | O=C(c1ccc(Cn2ccccc2=O)o1)N1CCSCC1 | -8.03%
52 | CCOC(=O)NCCNC(=O)c1cc(Br)cn1C(C)C | 9.21%
53 | CCNC(=O)N(C)C(c1cccc(F)c1)c1ccccn1 (stereo unspecified) | -14%
54 | CCCn1ccnc1-c1nccn1CCC(N)=O | -7.75%
55 | CNCc1cc(F)ccc1Oc1ccc(Cl)cc1 | 2.13%
56 | CCCN1C[C@H](NC(=O)c2cccs2)[C@@H](c2ccc(OC)cc2)C1 | 0.254%
57 | O=C1CN(Cc2cnc3c(-c4ccccc4)cnn3c2)CCCN1 | -6.12%
58 | Cn1cnn(Cc2c(F)cccc2Br)c1=O | 24.5%
59 | CN1CCCC(N2CCN(c3nc4ccccn4c3C#N)CC2)C1 (stereo unspecified) | 11.1%
60 | COCCn1cnnc1CNc1cc(C)nc2c(C)c(C)nn12 | -5.61%
61 | CN(C)c1ncccc1CNC(=O)N(Cc1ccccc1F)C1CC1 | -4.47%
62 | Cc1nc(C2CCCN2C(=O)COc2ccccc2)ncc1C(N)=O (stereo unspecified) | -4.1%
63 | Cc1ccoc1-c1nnc(CN2CCn3c(C)nnc3C2)o1 | -0.634%
64 | CCc1nc(C)sc1C(=O)N1CCN(c2ncccc2C)CC1 | -4.24%
65 | CCc1ccc(CN2CCC3(CC2)NC(=O)CC3c2ccncc2)o1 (stereo unspecified) | -23%
66 | O=C(c1cc(C2CC2)on1)N1C[C@@H]2COC[C@]2(COc2cccnc2)C1 | -4%
67 | CCCN(C(=O)c1ccccn1)c1nc2c(s1)CCc1c-2cnn1C | 3.64%
68 | CC(C)c1nc(CN2CCN(C(=O)OC(C)(C)C)C(C)C2)no1 (stereo unspecified) | -2.12%
69 | CS(=O)(=O)NCc1cc(=O)n2c(n1)CN(Cc1ccco1)CCC2 | -1.24%
70 | c1ccc(CCN2CCCC2c2cncc(Nc3nncs3)n2)cc1 (stereo unspecified) | 10.6%
71 | Cc1cnc(N2CCn3cc(CNC(=O)CC4CC4)nc3C2)nc1 | 25.9%
72 | COc1ccc(OCCN2CCCN(Cc3noc(C)n3)CC2)cc1 | 30.5%

Row | Compound | cytotoxicity at 70.5 h
73 | CN(C)CCN1CCN(Cc2cccs2)Cc2cccnc21 | -0.769%
74 | Cc1cc(NC(=O)N2CCCC(O)C2)nn1-c1ccccc1Cl (stereo unspecified) | -5.66%
75 | Cc1ccc(C)c(CSc2nnc(C(N)Cc3ccccc3)o2)c1 (stereo unspecified) | -14.6%
76 | COc1cccc(CN2CCCC2c2cncc(Nc3nncs3)n2)c1 (stereo unspecified) | 12.9%
77 | Cc1nn(C)c(N(C)C)c1CNCc1ccc(C(=O)N(C)C)cc1 | 4.69%
78 | NC(=O)c1cn[nH]c1NC(=O)c1ccc2c(c1)OCO2 | 1.1%
79 | Cc1ccc(-c2cc(N)c(=O)n(C(C)C(=O)NC(C)C)n2)o1 (stereo unspecified) | -11.9%
80 | N#Cc1ccc(-c2nnc(CSCCN3CCOCC3)o2)cc1 | -5.77%
81 | Cc1nn(C)c(C)c1C1CCCN1C(=O)CCNS(C)(=O)=O (stereo unspecified) | -5.69%
82 | CC(Cn1cccn1)NC(=O)NCCc1cccs1 (stereo unspecified) | -6.38%
83 | COCCN1CCC2(CC1)CN(C(=O)c1ccco1)CCO2 | 12.3%
84 | O=C1CC2(CCCCN2C(=O)c2cccs2)CN1CC1CC1 (stereo unspecified) | 3.54%
85 | NS(=O)(=O)c1cnc(NCC2(c3ccccc3)CCC2)s1 | -2.17%
86 | CCC(=O)N1CCN(C(=O)CCn2cccn2)CC1 | -7.9%
87 | CCc1nc(CN(C(C)=O)C2CCN(CCc3ccncc3)C2)no1 (stereo unspecified) | 11.6%
88 | CC(NCCn1cccn1)c1cc(F)ccc1F (stereo unspecified) | -3.98%
89 | Cc1cc(C(N)=O)ccc1NC(=O)c1nc(N2CCCC2)ncc1Cl | -4.63%
90 | O=C(c1ccccn1)N1Cc2nccn2CC(COc2cccnc2)C1 (stereo unspecified) | 22.8%
91 | O=C(NS(=O)(=O)c1ccc(Cl)cc1F)c1cccc2c1OCCO2 | -108%
92 | COCCN1CCOCC2(CCN(c3cnccn3)CC2)C1 | 8.46%
93 | CS(=O)(=O)CCC(=O)Nc1cc(Cl)c(Cl)cn1 | 26.6%
94 | CC(C)CNC(=O)CSc1nnc(OC(C)C)s1 | -10.7%
95 | Cn1nc(Cn2ccnc2)c2c1CN(C(=O)c1ccoc1)C2 | -9.72%
96 | CNC(=O)CN1CCC(c2cc(OC)cc(OC)c2)C1 (stereo unspecified) | -7.18%

Row | Compound | cytotoxicity at 70.5 h
97 | CCCNC(=O)c1cc(Br)c2c(c1)OCCO2 | -9.42%
98 | O=C(NCC1CCOCC1)[C@@H]1C[C@@H]2[C@@H](CCN2Cc2ccoc2)O1 | 0.123%
99 | CCc1ccc(S(=O)(=O)NCCOc2ccc3nnc(C)n3n2)s1 | -11.7%
100 | COC(=O)C(C)Sc1nnnn1C1CCOCC1 (stereo unspecified) | -5.79%
101 | CCCn1nccc1C(=O)Nc1ncc(C)s1 | -11.3%
102 | COc1cc(CC(O)CO)c(OC)c2c1OCO2 (stereo unspecified) | 30.2%
103 | CCc1nc(CCn2ccnc2-c2nccn2C)no1 | -7.8%
104 | CCS(=O)(=O)Cc1ccn(-c2cccc(F)c2)n1 | -3.75%
105 | Cc1noc(C)c1CN1CCCC1c1nc(-c2ccccc2)no1 (stereo unspecified) | -2.38%
106 | N#Cc1ccc(C2CC(=O)Nc3c2cnn3C2CCCC2)cc1 (stereo unspecified) | -2.74%
107 | O=C(NCCOc1ncc(Cl)cc1Cl)NCc1ccncc1 | -1.68%
108 | CC1(C)COCCN1C(=O)Cc1csc(Cc2ccccn2)n1 | -7.18%
109 | CC(=O)NC(C(=O)N1CCn2cncc2C1)C(C)C (stereo unspecified) | -2.16%
110 | CN1CCC(N(Cc2ccco2)S(=O)(=O)c2cc(Br)ccc2Br)CC1 | 1.03%
111 | COC(=O)CSc1nnc2[nH]c(=O)c3c(n12)CCCC3 | -13.8%
112 | Cc1ccccc1C1CCN(CCNC(=O)CS(C)(=O)=O)C1 (stereo unspecified) | -4.32%
113 | CC(C)c1nc(NS(=O)(=O)c2ccccc2Cl)no1 | 0.444%
114 | Cc1cc(C)n(Cc2cc(C(=O)N3CCCC3c3nccs3)n[nH]2)n1 (stereo unspecified) | -13.2%
115 | COc1c(C2CCCN2CC(=O)NCc2ccccn2)c(C)nn1C (stereo unspecified) | -11.4%
116 | O=C(OC1CCC1)c1ncccc1OCC(F)(F)F | 15.8%
